# Article PMC10866072, “Design, synthesis, molecular modelling and biological evaluation of novel 6-amino-5-cyano-2-thiopyrimidine derivatives as potent anticancer agents against leukemia and apoptotic inducers” (Journal of Enzyme Inhibition and Medicinal Chemistry, 2024)
# How the values were obtained:
# CCRF-CEM = assay type: cell-based; details: Homo sapiens, one dose 10^-5 M, 48 h
# HL-60(TB) = assay type: cell-based; details: Homo sapiens, one dose 10^-5 M, 48 h
# K-562 = assay type: cell-based; details: Homo sapiens, K562, one dose 10^-5 M, 48 h
# MOLT-4 = assay type: cell-based; details: Homo sapiens, one dose 10^-5 M, 48 h, read-out: % growth
# RPMI-8226 = assay type: cell-based; details: Homo sapiens, one dose 10^-5 M, 48 h
# SR = assay type: cell-based; details: Homo sapiens, one dose 10^-5 M, 48 h
# A549/ATCC = assay type: cell-based; details: Homo sapiens, one dose 10^-5 M, 48 h
# EKVX = assay type: cell-based; details: Homo sapiens, one dose 10^-5 M, 48 h
# HOP-62 = assay type: cell-based; details: Homo sapiens, one dose 10^-5 M, 48 h
# HOP-92 = assay type: cell-based; details: Homo sapiens, one dose 10^-5 M, 48 h
# NCI-H226 = assay type: cell-based; details: Homo sapiens, one dose 10^-5 M, 48 h
# NCI-H23 = assay type: cell-based; details: Homo sapiens, one dose 10^-5 M, 48 h, read-out: % growth
# NCI-H460 = assay type: cell-based; details: Homo sapiens, one dose 10^-5 M, 48 h, read-out: % growth
# NCI-H522 = assay type: cell-based; details: Homo sapiens, one dose 10^-5 M, 48 h
# COLO 205 = assay type: cell-based; details: Homo sapiens, one dose 10^-5 M, 48 h
# HCC-2998 = assay type: cell-based; details: Homo sapiens, one dose 10^-5 M, 48 h
# HCT-116 = assay type: cell-based; details: Homo sapiens, one dose 10^-5 M, 48 h, read-out: % growth
# HCT-15 = assay type: cell-based; details: Homo sapiens, one dose 10^-5 M, 48 h, read-out: % growth
# HT29 = assay type: cell-based; details: Homo sapiens, HT-29, one dose 10^-5 M, 48 h
# KM12 = assay type: cell-based; details: Homo sapiens, one dose 10^-5 M, 48 h
# SW-620 = assay type: cell-based; details: Homo sapiens, one dose 10^-5 M, 48 h
# SF-268 = assay type: cell-based; details: Homo sapiens, one dose 10^-5 M, 48 h, read-out: % growth
# SF-295 = assay type: cell-based; details: Homo sapiens, one dose 10^-5 M, 48 h
# SF-539 = assay type: cell-based; details: Homo sapiens, one dose 10^-5 M, 48 h
# SNB-19 = assay type: cell-based; details: Homo sapiens, one dose 10^-5 M, 48 h, read-out: % growth
# SNB-75 = assay type: cell-based; details: Homo sapiens, one dose 10^-5 M, 48 h
# U251 = assay type: cell-based; details: Homo sapiens, U-251, one dose 10^-5 M, 48 h
# LOX IMVI = assay type: cell-based; details: Homo sapiens, one dose 10^-5 M, 48 h, read-out: % growth
# MALME-3M = assay type: cell-based; details: Homo sapiens, one dose 10^-5 M, 48 h
# M14 = assay type: cell-based; details: Homo sapiens, one dose 10^-5 M, 48 h
# MDA-MB-435 = assay type: cell-based; details: Homo sapiens, one dose 10^-5 M, 48 h, read-out: % growth
# SK-MEL-2 = assay type: cell-based; details: Homo sapiens, one dose 10^-5 M, 48 h
# SK-MEL-28 = assay type: cell-based; details: Homo sapiens, one dose 10^-5 M, 48 h
# SK-MEL-5 = assay type: cell-based; details: Homo sapiens, one dose 10^-5 M, 48 h, read-out: % growth
# UACC-257 = assay type: cell-based; details: Homo sapiens, one dose 10^-5 M, 48 h
# UACC-62 = assay type: cell-based; details: Homo sapiens, one dose 10^-5 M, 48 h
# IGROV1 = assay type: cell-based; details: Homo sapiens, IGROV-1, one dose 10^-5 M, 48 h, read-out: % growth
# OVCAR-3 = assay type: cell-based; details: Homo sapiens, one dose 10^-5 M, 48 h
# OVCAR-4 = assay type: cell-based; details: Homo sapiens, one dose 10^-5 M, 48 h
# OVCAR-5 = assay type: cell-based; details: Homo sapiens, one dose 10^-5 M, 48 h
# OVCAR-8 = assay type: cell-based; details: Homo sapiens, one dose 10^-5 M, 48 h
# NCI/ADR-RES = assay type: cell-based; details: Homo sapiens, one dose 10^-5 M, 48 h
# SK-OV-3 = assay type: cell-based; details: Homo sapiens, one dose 10^-5 M, 48 h
# 786-0 = assay type: cell-based; details: Homo sapiens, one dose 10^-5 M, 48 h
# A498 = assay type: cell-based; details: Homo sapiens, one dose 10^-5 M, 48 h
# ACHN = assay type: cell-based; details: Homo sapiens, one dose 10^-5 M, 48 h
# CAKI-1 = assay type: cell-based; details: Homo sapiens, CAKI-1, 48 h, one dose 10^-5 M, 48 h
# SN12C = assay type: cell-based, human; details: Homo sapiens, one dose 10^-5 M, 48 h
# TK-10 = assay type: cell-based; details: Homo sapiens, one dose 10^-5 M, 48 h
# UO-31 = assay type: cell-based; details: Homo sapiens, UO-31, 48 h, one dose 10^-5 M, 48 h
# PC-3 = assay type: cell-based; details: Homo sapiens, one dose 10^-5 M, 48 h
# DU-145 = assay type: cell-based; details: Homo sapiens, one dose 10^-5 M, 48 h
# MCF7 = assay type: cell-based; details: Homo sapiens, one dose 10^-5 M, 48 h, read-out: % growth
# MDA-MB-231/ATCC = assay type: cell-based; details: Homo sapiens, one dose 10^-5 M, 48 h
# HS 578T = assay type: cell-based; details: Homo sapiens; one dose 10^-5 M, 48 h; HS 578T; read-out: % growth
# BT-549 = assay type: cell-based; details: Homo sapiens, one dose 10^-5 M, 48 h
# T-47D = assay type: cell-based; details: Homo sapiens, T47D, one dose 10^-5 M, 48 h, read-out: % growth
# MDA-MB-468 = assay type: cell-based; details: Homo sapiens, one dose 10^-5 M, 48 h
# [1] = test system: full NCI 60 cell lines panel
smiles,measurement,setting,value
"COc1ccc(/C=N\NC(=N)c2c(N)nc(S)nc2-c2ccc(N(C)C)cc2)cc1 [Compound 4d, 4-amino-N'-[(1Z)-(4-methoxyphenyl)methylene]-6-[4-(dimethylamino)phenyl]-2-mercapto pyrimidine-5-carboximidohydrazide]",% cell growth at 10 µM,CCRF-CEM,78.9%
same,% growth at 10 µM,HL-60(TB),93.8%
same,% growth at 10 µM,K-562,101%
same,activity at 10 µM,MOLT-4,101%
same,% growth at 10 µM,RPMI-8226,86.5%
same,percent cell growth at 10 µM,SR,102%
same,% growth at 10 µM,A549/ATCC,103%
same,% cell growth at 10 µM,EKVX,99%
same,% growth at 10 µM,HOP-62,106%
same,% growth at 10 µM,HOP-92,109%
same,% growth at 10 µM,NCI-H226,103%
same,activity at 10 µM,NCI-H23,103%
same,activity at 10 µM,NCI-H460,106%
same,% growth at 10 µM,NCI-H522,93.3%
same,% growth at 10 µM,COLO 205,118%
same,% growth at 10 µM,HCC-2998,108%
same,activity at 10 µM,HCT-116,108%
same,activity at 10 µM,HCT-15,98.2%
same,% growth at 10 µM,HT29,100%
same,% growth at 10 µM,KM12,93.2%
same,% growth at 10 µM,SW-620,103%
same,activity at 10 µM,SF-268,97%
same,% cell growth at 10 µM,SF-295,104%
same,% growth at 10 µM,SF-539,108%
same,activity at 10 µM,SNB-19,101%
same,% growth at 10 µM,SNB-75,101%
same,% growth at 10 µM,U251,106%
same,activity at 10 µM,LOX IMVI,101%
same,% growth at 10 µM,MALME-3M,98.4%
same,% growth at 10 µM,M14,96.1%
same,activity at 10 µM,MDA-MB-435,96.7%
same,% growth at 10 µM,SK-MEL-2,109%
same,% cell growth at 10 µM,SK-MEL-28,105%
same,activity at 10 µM,SK-MEL-5,102%
same,percent cell growth at 10 µM,UACC-257,106%
same,% growth at 10 µM,UACC-62,94.3%
same,activity at 10 µM,IGROV1,104%
same,% growth at 10 µM,OVCAR-3,105%
same,% growth at 10 µM,OVCAR-4,96.8%
same,percent cell growth at 10 µM,OVCAR-5,103%
same,% growth of cells at 10 µM,OVCAR-8,104%
same,cell growth percent at 10 µM,NCI/ADR-RES,107%
same,% growth at 10 µM,SK-OV-3,110%
same,% growth at 10 µM,786-0,98.3%
same,% growth at 10 µM,A498,119%
same,% growth at 10 µM,ACHN,103%
same,% growth at 10 µM,CAKI-1,97.5%
same,% growth at 10 µM,SN12C,100%
same,% cell growth at 10 µM,TK-10,103%
same,% cell growth at 10 µM,UO-31,72%
same,percent cell growth at 10 µM,PC-3,88.5%
same,% growth at 10 µM,DU-145,106%
same,activity at 10 µM,MCF7,95.2%
same,% growth at 10 µM,MDA-MB-231/ATCC,103%
same,activity at 10 µM,HS 578T,112%
same,% cell growth at 10 µM,BT-549,102%
same,activity at 10 µM,T-47D,98.7%
same,percent cell growth at 10 µM,MDA-MB-468,114%
same,activity at 10 µM,"[1]; Homo sapiens, 60 cell, 48 h, read-out: Mean % growth",101%
same,activity on all 60 cancer cell lines tested (in words),[1]; one dose,weak activity
